Test results taken from patent US9855341B2, “Formulations and carrier systems including farnesylthiosalycylic moities” (University of Pittsburgh—Of the Commonwealth System of …, priority 2014, dated 2018).

Experiments:
[1] = test system: HCT-116 human colon carcinoma cell line; assay: In vitro cytotoxicity, HCT-116; assay type: cell-based; conditions: HCT-116 cells
From the text: Several cancer cell lines were included in the cytotoxicity studies including murine breast cancer cells 4T1.2, human colon carcinoma cell line HCT-116, and two human prostate cancer cell lines PC-3 and DU145. […] A similar result was obtained in human colon cancer cells, HCT-116 as illustrated in FIG. 3B. […] Without limitation to any mechanism, it is likely that FTS is much more readily released from PEG5KFTS2(L) by esterases following intracellular delivery.
Incorporation of an additional disulfide linkage into PEG5K-FTS2(L) led to further improvement in cytotoxicity. […] Without limitation to any mechanism, this observation may, for example, be a result of enhanced intracellular delivery of FTS via PEG5K-S—S-FTS2(L).
The cytotoxicity of drug-free PEG5K-Fmoc-FTS2 and PEG5K-FTS2 micelles was examined in 4T1.2 and HCT-116 tumor cells and compared to free FTS (see FIGS. 12A and 12B, respectively). […] Without limitation to any mechanism, it is likely that the cytotoxicity of PEG-FTS comes from the released FTS following intracellular delivery.
FIGS. 13A-C show the cytotoxicity of TAXOL and PTX formulated in PEG5K-Fmoc-FTS2 micelles in several cancer cell lines.
See Zhang, X.; et al., PEG-farnesylthiosalicylate conjugate as a nanomicellar carrier for delivery of paclitaxel. Bioconjug. Chem., 24, 464-72 (2013). The cytotoxicity of free PEG5K-FTS2, PEG5K-Fmoc-FTS2 and FTS was also examined.

[2] = test system: PC-3 human prostate cancer cell line; assay: In vitro cytotoxicity, PC-3; assay type: cell-based; conditions: PC-3 cells
From the text: FIG. 9B illustrates cytotoxicity of FTS and FTS-amide in a PC-3 human prostate cancer cell line.
As described above, FTS and derivatives thereof can be used in the carrier agents hereof. In a number of embodiments (for example, for drug delivery), biologically active derivatives of FTS are used. […] Similar results were obtained in our in vitro cytotoxicity study with HCT-116 and PC-3 cancer cell lines (see FIGS. 9A and 9B).

[3] = mouse, in vivo, iv
Experimental: The blood samples were collected in heparinized tubes at different time points (3 min, 8 min, 15 min, 30 min, 1 h, 2 h, 4 h, 8 h, and 12 h) post-injection. The blood was centrifuged (2,500 rpm, 10 min) and plasma was collected for the analysis. […] Non-compartmental pharmacokinetic analysis was done by WinNonlin. […] At day 1 post-injection, tumor tissues and major organs were collected from the mice. The tissues were weighed and homogenized using Homogenizer PowerGen 500 (Fisher Scientific). […] The solutions were centrifuged (2,500 rpm, 10 min) and the supernatant was used for HPLC measurement.

[4] = From the text: Changes in body weight and mouse survival were monitored daily for two weeks. The MTD was defined as the maximal dose that causes neither greater than 15% of body weight loss nor mouse mortality within two weeks after administration. See Lu, J.; Huang, Y.; Zhao, W.; Marquez, R. T.; Meng, X.; Li, J.; Gao, X.; Venkataramanan, R.; Wang, Z.; Li, S., PEG-derivatized embelin as a nanomicellar carrier for delivery of paclitaxel to breast and prostate cancers. Biomaterials, 34, 1591-600 (2013).
[5] = test system: human prostate cancer xenograft model (PC-3); assay: NIRF optical imaging biodistribution; conditions: PC-3 xenograft, i.v.
Experimental: Biodistribution and tumor-targeting efficiency of PEG5K-Fmoc-FTS2 micelles were tested in a human prostate cancer xenograft model (PC-3). DiD, a hydrophobic near infrared fluorescence (NIRF) dye with high penetration, low tissue absorption and scattering was loaded into the PEG5K-Fmoc-FTS2 micelles for tissue imaging. […] After last imaging at 96 h post-injection, tumors and major organs were excised for ex vivo imaging.
At indicated times (0.5 h, 6 h, 24 h, 48 h, 72 h and 96 h), the mice were scanned using a Carestream Molecular Imaging System, In vivo Multispectral FX PRO, with the excitation at 630 nm and the emission at 700 nm using a 30 s exposure time. The mice were anesthetized by isoflurane inhalation before each imaging. After 96 h, the mice were euthanized by CO2 overdose. The tumor and major organs were excised for ex vivo imaging.

[6] = test system: 4T1.2 mouse breast cancer cell line; assay: In vitro cytotoxicity, 4T1.2; assay type: cell-based; conditions: 4T1.2 cells

SMILES: CC(C)=CCC/C(C)=C/CC/C(C)=C/CSc1ccccc1C(N)=O [FTS-amide, S-trans, trans-farnesylthiosalicylic acid amide]
- cytotoxicity (tumor cell growth inhibition) [1]: more effective than the parent compound in inhibiting the tumor cell growth
- cytotoxicity (tumor cell growth inhibition) [2]: more effective than the parent compound in inhibiting the tumor cell growth

SMILES: COc1cccc2c1C(=O)c1c(O)c3c(c(O)c1C2=O)C[C@@](O)(C(=O)CO)C[C@@H]3O[C@H]1C[C@H](N)[C@H](O)[C@H](C)O1 [DOX, doxorubicin]
- Vd [3]: 7.34 L/kg
- decrease in the body weight ([4]; 15 mg DOX/kg): > 15%
- mortality ([4]; 15 mg DOX/kg): death of all treated mice
- tolerability ([4]; dose of 10 mg/kg (DOX)): well tolerated

SMILES: CCCCCCCCCCCCCCCCCCN1C(=CC=CC=CC2=[N+](CCCCCCCCCCCCCCCCCC)c3ccccc3C2(C)C)C(C)(C)c2ccccc21.[O-][Cl+3]([O-])([O-])[O-] [free DiD, 1,1′-dioctadecyl-3,3,3′,3′-tetramethylindodicarbocyanine perchlorate]
- tumor accumulation (NIRF imaging) [5]: No obvious tumor accumulation

SMILES: CC(C)=CCC/C(C)=C/CC/C(C)=C/CSc1ccccc1C(=O)O [FTS, S-trans, trans-farnesylthiosalicylic acid]
- cytotoxicity (tumor cell growth inhibition) [6]: inhibited the tumor cell growth in a concentration-dependent manner
- cytotoxicity (tumor cell growth inhibition) [1]: inhibited the tumor cell growth in a concentration-dependent manner
